Results from ChEMBL document CHEMBL1156722, “A novel 5-[1,3,4-oxadiazol-2-yl]-N-aryl-4,6-pyrimidine diamine having dual EGFR/HER2 kinase activity: design, synthesis, and biological activity” (Bioorg Med Chem Lett, 2008).

What was measured:
[1] = target: Receptor tyrosine-protein kinase erbB-2 (Homo sapiens, UniProt P04626); assay: Inhibition of HER2
[2] = target: T1, Aurora kinase A (Homo sapiens) (UniProt O14965); assay: Inhibition of Aurora A at 100 uM
T1 sequence (whole entry): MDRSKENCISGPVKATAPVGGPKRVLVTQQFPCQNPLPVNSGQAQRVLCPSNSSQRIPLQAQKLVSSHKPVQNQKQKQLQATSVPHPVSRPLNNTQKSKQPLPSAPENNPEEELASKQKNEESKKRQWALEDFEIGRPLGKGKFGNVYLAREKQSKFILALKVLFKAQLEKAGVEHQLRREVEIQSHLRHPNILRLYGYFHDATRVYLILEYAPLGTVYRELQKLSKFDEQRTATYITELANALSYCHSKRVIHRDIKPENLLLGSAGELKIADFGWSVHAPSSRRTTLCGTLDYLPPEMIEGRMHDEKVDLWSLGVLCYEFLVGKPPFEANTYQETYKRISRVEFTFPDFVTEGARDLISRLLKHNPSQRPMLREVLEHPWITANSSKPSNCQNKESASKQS

[3] = target: Epidermal growth factor receptor (Homo sapiens, UniProt P00533)
Chain of Epidermal growth factor receptor (P00533 whole entry): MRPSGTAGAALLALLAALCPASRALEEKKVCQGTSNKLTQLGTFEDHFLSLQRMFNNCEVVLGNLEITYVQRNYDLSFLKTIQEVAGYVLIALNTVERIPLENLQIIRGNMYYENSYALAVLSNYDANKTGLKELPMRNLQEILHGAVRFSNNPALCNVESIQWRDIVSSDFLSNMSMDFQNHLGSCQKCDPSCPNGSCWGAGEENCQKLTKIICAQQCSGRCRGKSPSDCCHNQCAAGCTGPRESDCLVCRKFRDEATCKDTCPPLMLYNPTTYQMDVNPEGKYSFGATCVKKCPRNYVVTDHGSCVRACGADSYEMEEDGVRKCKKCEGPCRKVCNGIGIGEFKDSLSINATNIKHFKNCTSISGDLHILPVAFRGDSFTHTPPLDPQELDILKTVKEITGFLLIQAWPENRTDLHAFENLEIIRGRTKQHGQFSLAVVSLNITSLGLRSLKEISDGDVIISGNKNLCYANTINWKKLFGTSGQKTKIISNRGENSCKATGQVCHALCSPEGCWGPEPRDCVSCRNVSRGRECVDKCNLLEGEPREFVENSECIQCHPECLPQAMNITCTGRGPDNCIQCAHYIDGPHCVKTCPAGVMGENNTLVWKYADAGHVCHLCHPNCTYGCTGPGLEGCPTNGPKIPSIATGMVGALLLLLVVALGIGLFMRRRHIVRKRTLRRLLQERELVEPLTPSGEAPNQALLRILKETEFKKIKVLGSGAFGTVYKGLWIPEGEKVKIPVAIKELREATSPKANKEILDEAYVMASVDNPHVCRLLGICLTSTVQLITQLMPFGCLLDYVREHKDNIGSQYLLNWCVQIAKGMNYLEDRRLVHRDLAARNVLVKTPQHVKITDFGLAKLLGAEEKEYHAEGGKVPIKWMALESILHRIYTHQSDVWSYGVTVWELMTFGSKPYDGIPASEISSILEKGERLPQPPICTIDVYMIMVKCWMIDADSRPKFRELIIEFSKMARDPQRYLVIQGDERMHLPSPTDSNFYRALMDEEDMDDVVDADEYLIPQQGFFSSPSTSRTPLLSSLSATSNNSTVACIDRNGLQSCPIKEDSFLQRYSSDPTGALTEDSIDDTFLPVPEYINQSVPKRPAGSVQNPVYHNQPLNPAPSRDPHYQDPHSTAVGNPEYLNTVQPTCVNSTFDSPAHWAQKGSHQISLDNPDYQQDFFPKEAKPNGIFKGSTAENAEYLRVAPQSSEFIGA

[4] = target: T2, Vascular endothelial growth factor receptor 2 (Homo sapiens, UniProt P35968); assay: Inhibition of VEGFR2
T2 sequence (P35968 whole entry): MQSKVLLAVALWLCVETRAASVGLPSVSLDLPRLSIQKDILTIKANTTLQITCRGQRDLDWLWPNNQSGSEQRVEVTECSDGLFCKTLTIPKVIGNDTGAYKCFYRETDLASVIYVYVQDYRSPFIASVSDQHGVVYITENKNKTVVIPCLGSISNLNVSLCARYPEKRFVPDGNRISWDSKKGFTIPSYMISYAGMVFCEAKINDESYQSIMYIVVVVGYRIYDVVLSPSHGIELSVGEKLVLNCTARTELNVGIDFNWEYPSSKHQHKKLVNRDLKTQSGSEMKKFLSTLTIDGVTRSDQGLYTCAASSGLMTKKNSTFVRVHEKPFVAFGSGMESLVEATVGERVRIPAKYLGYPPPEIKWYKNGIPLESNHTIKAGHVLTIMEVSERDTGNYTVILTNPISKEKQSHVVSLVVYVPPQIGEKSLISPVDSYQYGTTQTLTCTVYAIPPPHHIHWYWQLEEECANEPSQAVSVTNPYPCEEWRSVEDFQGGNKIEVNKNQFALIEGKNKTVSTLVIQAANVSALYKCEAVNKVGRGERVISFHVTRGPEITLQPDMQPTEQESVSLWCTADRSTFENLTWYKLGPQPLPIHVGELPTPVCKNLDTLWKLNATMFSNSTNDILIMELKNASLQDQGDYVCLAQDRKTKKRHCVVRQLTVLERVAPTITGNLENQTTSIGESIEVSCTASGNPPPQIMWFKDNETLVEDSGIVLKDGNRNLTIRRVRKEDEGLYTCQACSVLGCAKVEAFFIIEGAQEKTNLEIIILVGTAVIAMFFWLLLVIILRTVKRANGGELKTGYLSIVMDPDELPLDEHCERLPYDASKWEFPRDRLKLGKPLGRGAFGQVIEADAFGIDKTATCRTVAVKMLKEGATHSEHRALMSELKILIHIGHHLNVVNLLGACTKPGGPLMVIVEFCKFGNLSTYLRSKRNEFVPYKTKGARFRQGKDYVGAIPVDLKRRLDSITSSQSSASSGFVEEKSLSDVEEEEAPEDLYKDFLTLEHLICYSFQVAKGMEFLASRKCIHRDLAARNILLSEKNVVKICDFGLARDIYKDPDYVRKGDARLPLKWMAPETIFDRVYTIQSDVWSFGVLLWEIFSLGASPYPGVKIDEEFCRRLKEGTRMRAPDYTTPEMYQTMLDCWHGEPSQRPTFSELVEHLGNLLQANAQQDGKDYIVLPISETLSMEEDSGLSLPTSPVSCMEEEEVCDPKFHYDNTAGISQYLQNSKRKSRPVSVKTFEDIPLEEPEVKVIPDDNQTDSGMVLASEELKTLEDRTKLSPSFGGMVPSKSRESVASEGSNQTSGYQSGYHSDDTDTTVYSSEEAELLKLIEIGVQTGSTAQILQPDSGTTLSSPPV

[5] = test system: SK-BR-3; assay: Cytotoxicity against human HER2-dependent SKBR3 cells; format: functional, cell-based
[6] = target: T3, Aurora kinase A (Homo sapiens, UniProt O14965); assay: Inhibition of Aurora A
T3 sequence (O14965 whole entry): T1 sequence (whole entry)

[7] = test system: HeLa; assay: Cytotoxicity against human non-HER2-dependent HeLa cells; format: functional, cell-based
[8] = test system: BT-474; assay: Cytotoxicity against human HER2-dependent BT474 cells; format: functional, cell-based
[9] = test system: NCI-N87; assay: Cytotoxicity against human HER2-dependent N87 cells; format: functional, cell-based
[10] = target: T4, Cyclin-dependent kinase 1 (Homo sapiens, UniProt P06493); assay: Inhibition of CDK1
Target sequence in this assay (P06493 whole entry): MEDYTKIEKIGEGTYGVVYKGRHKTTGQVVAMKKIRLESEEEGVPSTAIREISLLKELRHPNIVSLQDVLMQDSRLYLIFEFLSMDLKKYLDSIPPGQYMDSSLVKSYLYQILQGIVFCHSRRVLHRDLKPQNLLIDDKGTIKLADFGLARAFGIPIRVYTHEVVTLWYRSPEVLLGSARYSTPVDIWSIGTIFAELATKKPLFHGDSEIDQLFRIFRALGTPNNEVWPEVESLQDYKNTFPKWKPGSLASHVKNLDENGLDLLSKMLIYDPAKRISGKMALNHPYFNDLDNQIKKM

[11] = target: T4, Cyclin-dependent kinase 1; assay: Inhibition of CDK1 at 100 uM
Target sequence in this assay (P06493 whole entry, looked up): as the sequence (P06493 whole entry) above

[12] = target: T2, Vascular endothelial growth factor receptor 2; assay: Inhibition of VEGFR2 at 100 uM

Chain of Receptor tyrosine-protein kinase erbB-2 (P04626 whole entry): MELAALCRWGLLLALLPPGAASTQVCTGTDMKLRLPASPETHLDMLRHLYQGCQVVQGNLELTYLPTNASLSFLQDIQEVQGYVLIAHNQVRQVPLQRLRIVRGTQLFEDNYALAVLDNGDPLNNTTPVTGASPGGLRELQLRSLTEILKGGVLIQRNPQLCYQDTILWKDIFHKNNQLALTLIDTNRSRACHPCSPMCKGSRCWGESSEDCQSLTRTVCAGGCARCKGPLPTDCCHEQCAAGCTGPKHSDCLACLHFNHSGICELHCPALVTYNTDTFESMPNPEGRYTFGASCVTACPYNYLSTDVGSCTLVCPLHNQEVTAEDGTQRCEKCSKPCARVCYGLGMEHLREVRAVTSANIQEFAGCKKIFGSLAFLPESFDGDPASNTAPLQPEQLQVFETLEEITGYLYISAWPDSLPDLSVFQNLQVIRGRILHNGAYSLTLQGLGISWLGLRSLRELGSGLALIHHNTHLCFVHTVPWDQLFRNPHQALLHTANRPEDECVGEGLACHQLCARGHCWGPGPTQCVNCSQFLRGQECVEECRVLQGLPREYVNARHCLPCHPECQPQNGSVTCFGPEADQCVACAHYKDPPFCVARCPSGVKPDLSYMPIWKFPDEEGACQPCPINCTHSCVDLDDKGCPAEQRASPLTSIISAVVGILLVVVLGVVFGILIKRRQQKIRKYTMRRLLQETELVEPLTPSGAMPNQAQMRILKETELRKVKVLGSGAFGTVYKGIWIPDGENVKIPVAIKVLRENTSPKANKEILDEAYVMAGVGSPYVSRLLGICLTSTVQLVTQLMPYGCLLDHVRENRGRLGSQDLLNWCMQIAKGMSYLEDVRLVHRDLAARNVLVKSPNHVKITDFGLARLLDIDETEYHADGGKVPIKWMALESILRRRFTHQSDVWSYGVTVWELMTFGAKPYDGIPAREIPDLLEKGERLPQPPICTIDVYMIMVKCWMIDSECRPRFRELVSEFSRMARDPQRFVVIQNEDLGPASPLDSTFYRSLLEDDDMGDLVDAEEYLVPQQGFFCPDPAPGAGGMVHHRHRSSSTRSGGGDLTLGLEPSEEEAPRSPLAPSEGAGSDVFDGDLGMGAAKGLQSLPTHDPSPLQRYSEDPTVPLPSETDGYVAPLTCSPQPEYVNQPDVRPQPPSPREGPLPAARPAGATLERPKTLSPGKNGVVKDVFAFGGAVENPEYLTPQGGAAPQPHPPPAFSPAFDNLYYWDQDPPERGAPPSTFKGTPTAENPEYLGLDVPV

| SMILES | IC50 [1] [µM] | inhibition [2] [%] | IC50 [4] [µM] | IC50 [6] [µM] | IC50 [10] [µM] | other results |
| --- | --- | --- | --- | --- | --- | --- |
| COC(=O)c1c(N)ncnc1Nc1ccc(OCc2ccccc2)c(Cl)c1 | 0.1 | 50 | – | – | – | – |
| Nc1ncnc(Nc2ccc(OCc3ccccc3)c(Cl)c2)c1-c1nnc(CCN2CCOCC2)o1 | 0.08 | – | > 100 | > 100 | > 100 | IC50 [3]: 0.03 µM; IC50 [5]: 0.325 µM; IC50 [7]: > 100 µM; IC50 [8]: 0.312 µM; IC50 [9]: 0.411 µM |
| Nc1ncnc(Nc2ccc(OCc3ccccc3)c(Cl)c2)c1C(=O)O | – | 73 | – | – | – | inhibition [11]: < 10%; inhibition [12]: 30% |
| Nc1ncnc(Nc2ccc(OCc3ccccc3)c(Cl)c2)c1C(=O)NCCN1CCOCC1 | 10 | – | > 100 | > 100 | > 100 | – |
| Nc1ncnc(Nc2ccc(OCc3ccccc3)c(Cl)c2)c1C(=O)OCc1cccc(F)c1 | > 100 | – | > 100 | > 100 | > 100 | – |
| Nc1ncnc(Nc2ccc(OCc3ccccc3)c(Cl)c2)c1C(=O)Nc1ccccc1 | > 100 | – | > 100 | > 100 | > 100 | IC50 [3]: 0.076 µM |
| CCN(CC)C(=O)c1c(N)ncnc1Nc1ccc(OCc2ccccc2)c(Cl)c1 | > 100 | – | > 100 | > 100 | > 100 | – |

Continued, in another order:

| IC50 [1] [µM] | inhibition [2] [%] | IC50 [4] [µM] | IC50 [6] [µM] | IC50 [10] [µM] | SMILES | other results |
| --- | --- | --- | --- | --- | --- | --- |
| 0.47 | 33 | – | – | – | N#Cc1c(N)ncnc1Nc1ccc(OCc2ccccc2)c(Cl)c1 | IC50 [3]: 0.027 µM; inhibition [11]: < 10%; inhibition [12]: 37% |
| > 100 | – | > 100 | > 100 | > 100 | COc1ccc(CCNC(=O)c2c(N)ncnc2Nc2ccc(OCc3ccccc3)c(Cl)c2)cc1 | – |
| – | 30 | – | – | – | Nc1ncnc(Nc2ccc(OCc3ccccc3)c(Cl)c2)c1C=O | inhibition [11]: < 10%; inhibition [12]: < 10% |
| > 100 | – | > 100 | > 10 | > 100 | COc1ccc(NC(=O)c2c(N)ncnc2Nc2ccc(OCc3ccccc3)c(Cl)c2)cc1 | – |
| 0.146 | – | > 10 | > 10 | > 100 | NNC(=O)c1c(N)ncnc1Nc1ccc(OCc2ccccc2)c(Cl)c1 | – |
| > 100 | – | > 100 | > 100 | > 100 | COCCNC(=O)c1c(N)ncnc1Nc1ccc(OCc2ccccc2)c(Cl)c1 | – |
| – | – | > 100 | 100 | > 100 | Nc1ncnc(Nc2ccc(OCc3ccccc3)c(Cl)c2)c1C(=O)NCCN1CCCCC1 | – |
| 1.53 | 55 | – | – | – | Nc1ncnc(Nc2ccc(OCc3ccccc3)c(Cl)c2)c1C(=O)OCCN1CCOCC1 | inhibition [11]: < 10%; inhibition [12]: 11% |
| – | – | > 100 | > 100 | > 100 | Nc1ncnc(Nc2ccc(OCc3ccccc3)c(Cl)c2)c1C(=O)NNC(=O)CCN1CCOCC1 | – |
